From patent publication US20100267561A1, “HERBICIDAL PYRIDAZINONE DERIVATIVES” (priority 2007, published 2010)

What was measured:
Assay in all cases: Test E pre-/postemergence plant response
Type in all cases: in vivo
[1] = test system: purple nutsedge (Cyperus rotundus); conditions: scale 0 to 100
Method in brief: (§1)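 Formulated in a non-phytotoxic solvent mixture containing surfactant, compound was applied to soil at planting or sprayed on emerged plants at the 1- to 4-leaf stage. Visual comparison with controls followed 14 to 21 days in the greenhouse; 0 = no effect, 100 = complete control.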

[2] = test system: itchgrass (Rottboellia cochinchinensis); conditions: scale 0 to 100
Method in brief: as §1

[3] = test system: surinam grass (Brachiaria decumbens); conditions: scale 0 to 100
Method in brief: as §1

[4] = test system: johnsongrass (Sorghum halepense); conditions: scale 0 to 100
Method in brief: as §1

[5] = test system: broadleaf signalgrass (Brachiaria platyphylla); conditions: scale 0 to 100
Method in brief: as §1

[6] = test system: common chickweed (Stellaria media); conditions: Postemergence, scale 0 to 100
Method in brief: as §1

[7] = test system: green foxtail (Setaria viridis); conditions: scale 0 to 100
Method in brief: as §1

[8] = test system: naked crabgrass (Digitaria nuda); conditions: scale 0 to 100
Method in brief: as §1

[9] = test system: quackgrass (Elytrigia repens); conditions: scale 0 to 100
Method in brief: as §1

[10] = test system: annual bluegrass (Poa annua); conditions: scale 0 to 100
Method in brief: as §1

[11] = test system: pitted morningglory (Ipomoea lacunosa); conditions: scale 0 to 100
Method in brief: as §1

[12] = test system: bermudagrass (Cynodon dactylon); conditions: scale 0 to 100
Method in brief: as §1

[13] = test system: large crabgrass (Digitaria sanguinalis); conditions: scale 0 to 100
Method in brief: as §1

[14] = test system: common mallow (Malva sylvestris); conditions: scale 0 to 100
Method in brief: as §1

[15] = test system: Italian ryegrass (Lolium multiflorum); conditions: scale 0 to 100
Method in brief: as §1

`Cc1cc(-c2ccc(Cl)cc2)nn1-c1c(OS(C)(=O)=O)cnn(C)c1=O` [Compound 36] was tested, and the “Plant response rating, Nutsedge, Purple” value ([1]; 16 g ai/ha, Preemergence) was 0, the “Plant response rating, Nutsedge, Purple” value ([1]; 31 g ai/ha, Preemergence) was 0 and the “Plant response rating, Nutsedge, Purple” value ([1]; 62 g ai/ha, Preemergence) was 0. The “Plant response rating, Nutsedge, Purple” value ([1]; Postemergence, 8 g ai/ha) was 0, the “Plant response rating, Nutsedge, Purple” value ([1]; Postemergence, 16 g ai/ha) was 0 and the “Plant response rating, Nutsedge, Purple” value ([1]; Postemergence, 31 g ai/ha) was 0. The “Plant response rating, Nutsedge, Purple” value ([1]; Postemergence, 62 g ai/ha) was 0, the “Plant response rating, Itchgrass” value ([2]; 16 g ai/ha, Preemergence) was 65 and the “Plant response rating, Itchgrass” value ([2]; 31 g ai/ha, Preemergence) was 75. For the same compound, the “Plant response rating, Itchgrass” value ([2]; 62 g ai/ha, Preemergence) was 90, the “Plant response rating, Itchgrass” value ([2]; Postemergence, 8 g ai/ha) was 0 and the “Plant response rating, Itchgrass” value ([2]; Postemergence, 16 g ai/ha) was 40. For the same compound, the “Plant response rating, Itchgrass” value ([2]; Postemergence, 31 g ai/ha) was 50, the “Plant response rating, Itchgrass” value ([2]; Postemergence, 62 g ai/ha) was 60 and the “Plant response rating, Surinam Grass” value ([3]; 16 g ai/ha, Preemergence) was 95. The “Plant response rating, Surinam Grass” value ([3]; 31 g ai/ha, Preemergence) was 100, the “Plant response rating, Surinam Grass” value ([3]; 62 g ai/ha, Preemergence) was 100 and the “Plant response rating, Surinam Grass” value ([3]; Postemergence, 8 g ai/ha) was 65. The “Plant response rating, Surinam Grass” value ([3]; Postemergence, 16 g ai/ha) was 65, the “Plant response rating, Surinam Grass” value ([3]; Postemergence, 31 g ai/ha) was 80 and the “Plant response rating, Surinam Grass” value ([3]; Postemergence, 62 g ai/ha) was 100. The “Plant response rating, Johnsongrass” value ([4]; 16 g ai/ha, Preemergence) was 75, the “Plant response rating, Johnsongrass” value ([4]; 31 g ai/ha, Preemergence) was 85 and the “Plant response rating, Johnsongrass” value ([4]; 62 g ai/ha, Preemergence) was 95. The “Plant response rating, Johnsongrass” value ([4]; Postemergence, 8 g ai/ha) was 35, the “Plant response rating, Johnsongrass” value ([4]; Postemergence, 16 g ai/ha) was 50 and the “Plant response rating, Johnsongrass” value ([4]; Postemergence, 31 g ai/ha) was 75. For the same compound, the “Plant response rating, Johnsongrass” value ([4]; Postemergence, 62 g ai/ha) was 95, the “Plant response rating, Signalgrass” value ([5]; 16 g ai/ha, Preemergence) was 70 and the “Plant response rating, Signalgrass” value ([5]; 31 g ai/ha, Preemergence) was 100. For the same compound, the “Plant response rating, Signalgrass” value ([5]; 62 g ai/ha, Preemergence) was 100, the “Plant response rating, Signalgrass” value ([5]; Postemergence, 8 g ai/ha) was 10 and the “Plant response rating, Signalgrass” value ([5]; Postemergence, 16 g ai/ha) was 50. The “Plant response rating, Signalgrass” value ([5]; Postemergence, 31 g ai/ha) was 90, the “Plant response rating, Signalgrass” value ([5]; Postemergence, 62 g ai/ha) was 100 and the “Plant response rating, Chickweed” value ([6]; 8 g ai/ha) was 0. For the same compound, the “Plant response rating, Chickweed” value ([6]; 16 g ai/ha) was 0, the “Plant response rating, Foxtail, Green” value ([7]; 8 g ai/ha, Preemergence) was 15 and the “Plant response rating, Foxtail, Green” value ([7]; 16 g ai/ha, Preemergence) was 60. For the same compound, the “Plant response rating, Foxtail, Green” value ([7]; 31 g ai/ha, Preemergence) was 95, the “Plant response rating, Foxtail, Green” value ([7]; 62 g ai/ha, Preemergence) was 100 and the “Plant response rating, Foxtail, Green” value ([7]; Postemergence, 8 g ai/ha) was 35. The “Plant response rating, Foxtail, Green” value ([7]; Postemergence, 16 g ai/ha) was 50, the “Plant response rating, Foxtail, Green” value ([7]; Postemergence, 31 g ai/ha) was 75 and the “Plant response rating, Foxtail, Green” value ([7]; Postemergence, 62 g ai/ha) was 75. The “Plant response rating, Crabgrass, Naked” value ([8]; 8 g ai/ha, Preemergence) was 90, the “Plant response rating, Crabgrass, Naked” value ([8]; 16 g ai/ha, Preemergence) was 100 and the “Plant response rating, Crabgrass, Naked” value ([8]; 31 g ai/ha, Preemergence) was 100. For the same compound, the “Plant response rating, Crabgrass, Naked” value ([8]; 62 g ai/ha, Preemergence) was 100, the “Plant response rating, Crabgrass, Naked” value ([8]; Postemergence, 8 g ai/ha) was 40 and the “Plant response rating, Crabgrass, Naked” value ([8]; Postemergence, 16 g ai/ha) was 60. The “Plant response rating, Crabgrass, Naked” value ([8]; Postemergence, 31 g ai/ha) was 90, the “Plant response rating, Crabgrass, Naked” value ([8]; Postemergence, 62 g ai/ha) was 98 and the “Plant response rating, Quackgrass” value ([9]; 16 g ai/ha, Preemergence) was 20. The “Plant response rating, Quackgrass” value ([9]; 31 g ai/ha, Preemergence) was 50, the “Plant response rating, Quackgrass” value ([9]; 62 g ai/ha, Preemergence) was 70 and the “Plant response rating, Quackgrass” value ([9]; Postemergence, 8 g ai/ha) was 0. For the same compound, the “Plant response rating, Quackgrass” value ([9]; Postemergence, 16 g ai/ha) was 0, the “Plant response rating, Quackgrass” value ([9]; Postemergence, 31 g ai/ha) was 30 and the “Plant response rating, Quackgrass” value ([9]; Postemergence, 62 g ai/ha) was 35. The “Plant response rating, Bluegrass” value ([10]; 8 g ai/ha, Preemergence) was 0, the “Plant response rating, Bluegrass” value ([10]; 16 g ai/ha, Preemergence) was 0 and the “Plant response rating, Bluegrass” value ([10]; 31 g ai/ha, Preemergence) was 0. For the same compound, the “Plant response rating, Bluegrass” value ([10]; 62 g ai/ha, Preemergence) was 0, the “Plant response rating, Bluegrass” value ([10]; Postemergence, 8 g ai/ha) was 0 and the “Plant response rating, Bluegrass” value ([10]; Postemergence, 16 g ai/ha) was 0. For the same compound, the “Plant response rating, Bluegrass” value ([10]; Postemergence, 31 g ai/ha) was 0, the “Plant response rating, Bluegrass” value ([10]; Postemergence, 62 g ai/ha) was 0 and the “Plant response rating, Morningglory” value ([11]; 16 g ai/ha, Preemergence) was 0. For the same compound, the “Plant response rating, Morningglory” value ([11]; 31 g ai/ha, Preemergence) was 0, the “Plant response rating, Morningglory” value ([11]; 62 g ai/ha, Preemergence) was 0 and the “Plant response rating, Morningglory” value ([11]; Postemergence, 8 g ai/ha) was 0. The “Plant response rating, Morningglory” value ([11]; Postemergence, 16 g ai/ha) was 0, the “Plant response rating, Morningglory” value ([11]; Postemergence, 31 g ai/ha) was 0 and the “Plant response rating, Morningglory” value ([11]; Postemergence, 62 g ai/ha) was 0. For the same compound, the “Plant response rating, Bermudagrass” value ([12]; 8 g ai/ha, Preemergence) was 75, the “Plant response rating, Bermudagrass” value ([12]; 16 g ai/ha, Preemergence) was 100 and the “Plant response rating, Bermudagrass” value ([12]; 31 g ai/ha, Preemergence) was 100. The “Plant response rating, Bermudagrass” value ([12]; 62 g ai/ha, Preemergence) was 100, the “Plant response rating, Bermudagrass” value ([12]; Postemergence, 8 g ai/ha) was 40 and the “Plant response rating, Bermudagrass” value ([12]; Postemergence, 16 g ai/ha) was 40. For the same compound, the “Plant response rating, Bermudagrass” value ([12]; Postemergence, 31 g ai/ha) was 70, the “Plant response rating, Bermudagrass” value ([12]; Postemergence, 62 g ai/ha) was 90 and the “Plant response rating, Crabgrass, Large” value ([13]; 8 g ai/ha, Preemergence) was 35. For the same compound, the “Plant response rating, Crabgrass, Large” value ([13]; 16 g ai/ha, Preemergence) was 95, the “Plant response rating, Crabgrass, Large” value ([13]; 31 g ai/ha, Preemergence) was 98 and the “Plant response rating, Crabgrass, Large” value ([13]; 62 g ai/ha, Preemergence) was 98. For the same compound, the “Plant response rating, Crabgrass, Large” value ([13]; Postemergence, 8 g ai/ha) was 65, the “Plant response rating, Crabgrass, Large” value ([13]; Postemergence, 16 g ai/ha) was 70 and the “Plant response rating, Crabgrass, Large” value ([13]; Postemergence, 31 g ai/ha) was 75. For the same compound, the “Plant response rating, Crabgrass, Large” value ([13]; Postemergence, 62 g ai/ha) was 80, the “Plant response rating, Mallow” value ([14]; 16 g ai/ha, Preemergence) was 0 and the “Plant response rating, Mallow” value ([14]; 31 g ai/ha, Preemergence) was 0. The “Plant response rating, Mallow” value ([14]; 62 g ai/ha, Preemergence) was 0, the “Plant response rating, Mallow” value ([14]; Postemergence, 8 g ai/ha) was 0 and the “Plant response rating, Mallow” value ([14]; Postemergence, 16 g ai/ha) was 0. The “Plant response rating, Mallow” value ([14]; Postemergence, 31 g ai/ha) was 0, the “Plant response rating, Mallow” value ([14]; Postemergence, 62 g ai/ha) was 0 and the “Plant response rating, Ryegrass, Italian” value ([15]; 16 g ai/ha, Preemergence) was 100. The “Plant response rating, Ryegrass, Italian” value ([15]; 31 g ai/ha, Preemergence) was 100, the “Plant response rating, Ryegrass, Italian” value ([15]; 62 g ai/ha, Preemergence) was 100 and the “Plant response rating, Ryegrass, Italian” value ([15]; Postemergence, 8 g ai/ha) was 0. The “Plant response rating, Ryegrass, Italian” value ([15]; Postemergence, 16 g ai/ha) was 35, the “Plant response rating, Ryegrass, Italian” value ([15]; Postemergence, 31 g ai/ha) was 60 and the “Plant response rating, Ryegrass, Italian” value ([15]; Postemergence, 62 g ai/ha) was 80.
